Assays:
D(1A) dopamine receptor [1] = molecular target: T1, D(1A) dopamine receptor (Homo sapiens, UniProt P21728)
[2] = molecular target: Kappa-type opioid receptor (Homo sapiens, UniProt P41145)
D(3) dopamine receptor [3] = molecular target: T2, D(3) dopamine receptor (Homo sapiens, UniProt P35462)
[4] = molecular target: T3, 5-hydroxytryptamine receptor 3A (Homo sapiens, UniProt P46098); format: functional
T3 sequence (P46098 whole entry): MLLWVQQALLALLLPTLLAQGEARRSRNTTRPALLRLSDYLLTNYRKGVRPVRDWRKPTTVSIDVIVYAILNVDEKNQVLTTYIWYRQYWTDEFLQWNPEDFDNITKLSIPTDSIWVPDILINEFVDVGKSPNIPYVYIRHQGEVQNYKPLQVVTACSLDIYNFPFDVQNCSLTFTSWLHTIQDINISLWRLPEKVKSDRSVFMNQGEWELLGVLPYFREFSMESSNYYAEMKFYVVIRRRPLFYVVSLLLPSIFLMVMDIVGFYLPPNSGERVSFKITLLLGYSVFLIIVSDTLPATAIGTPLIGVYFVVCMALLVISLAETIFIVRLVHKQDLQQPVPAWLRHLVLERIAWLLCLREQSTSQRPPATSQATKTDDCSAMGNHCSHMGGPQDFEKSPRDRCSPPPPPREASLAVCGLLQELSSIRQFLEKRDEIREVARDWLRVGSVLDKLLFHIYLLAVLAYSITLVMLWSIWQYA

[5] = molecular target: T4, Sodium-dependent dopamine transporter (Homo sapiens, UniProt Q01959)
T4 sequence (Q01959 whole entry): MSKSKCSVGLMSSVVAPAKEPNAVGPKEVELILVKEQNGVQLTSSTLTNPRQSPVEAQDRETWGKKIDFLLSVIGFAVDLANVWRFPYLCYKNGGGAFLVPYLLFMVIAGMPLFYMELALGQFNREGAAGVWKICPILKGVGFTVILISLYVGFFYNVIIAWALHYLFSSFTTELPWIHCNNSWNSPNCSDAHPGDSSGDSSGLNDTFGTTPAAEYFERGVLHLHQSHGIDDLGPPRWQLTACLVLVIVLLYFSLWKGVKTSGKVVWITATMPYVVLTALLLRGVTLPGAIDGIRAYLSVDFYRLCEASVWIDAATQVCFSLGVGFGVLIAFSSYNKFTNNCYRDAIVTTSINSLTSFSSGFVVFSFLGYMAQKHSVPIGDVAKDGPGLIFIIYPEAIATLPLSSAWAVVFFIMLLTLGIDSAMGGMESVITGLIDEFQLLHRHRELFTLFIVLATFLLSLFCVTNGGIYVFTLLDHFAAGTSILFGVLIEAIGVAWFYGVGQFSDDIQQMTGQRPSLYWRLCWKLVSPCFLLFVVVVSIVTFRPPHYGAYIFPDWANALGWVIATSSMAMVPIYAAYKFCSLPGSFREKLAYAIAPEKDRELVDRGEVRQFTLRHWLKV

[6] = molecular target: T5, Sodium-dependent noradrenaline transporter (Homo sapiens, UniProt P23975)
T5 sequence (P23975 whole entry): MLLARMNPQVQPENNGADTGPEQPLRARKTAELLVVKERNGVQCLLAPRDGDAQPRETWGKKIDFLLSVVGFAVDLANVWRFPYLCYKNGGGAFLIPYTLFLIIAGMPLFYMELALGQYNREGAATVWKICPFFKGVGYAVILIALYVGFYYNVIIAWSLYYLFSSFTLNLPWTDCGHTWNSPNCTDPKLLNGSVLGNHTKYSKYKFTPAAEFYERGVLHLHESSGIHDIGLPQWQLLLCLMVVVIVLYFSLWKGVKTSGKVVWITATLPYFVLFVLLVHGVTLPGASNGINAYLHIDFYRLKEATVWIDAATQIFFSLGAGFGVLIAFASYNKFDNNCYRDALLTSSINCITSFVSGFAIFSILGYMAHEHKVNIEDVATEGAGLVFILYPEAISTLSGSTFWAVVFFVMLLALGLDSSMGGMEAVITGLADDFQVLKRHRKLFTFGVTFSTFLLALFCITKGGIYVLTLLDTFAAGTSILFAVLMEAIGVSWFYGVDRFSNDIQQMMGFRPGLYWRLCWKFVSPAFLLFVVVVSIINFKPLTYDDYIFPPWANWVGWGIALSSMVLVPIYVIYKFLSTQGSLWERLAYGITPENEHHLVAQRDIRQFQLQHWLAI

[7] = molecular target: T6, 5-hydroxytryptamine receptor 2B (Homo sapiens, UniProt P41595); format: functional, cell-based
T6 sequence (P41595 whole entry): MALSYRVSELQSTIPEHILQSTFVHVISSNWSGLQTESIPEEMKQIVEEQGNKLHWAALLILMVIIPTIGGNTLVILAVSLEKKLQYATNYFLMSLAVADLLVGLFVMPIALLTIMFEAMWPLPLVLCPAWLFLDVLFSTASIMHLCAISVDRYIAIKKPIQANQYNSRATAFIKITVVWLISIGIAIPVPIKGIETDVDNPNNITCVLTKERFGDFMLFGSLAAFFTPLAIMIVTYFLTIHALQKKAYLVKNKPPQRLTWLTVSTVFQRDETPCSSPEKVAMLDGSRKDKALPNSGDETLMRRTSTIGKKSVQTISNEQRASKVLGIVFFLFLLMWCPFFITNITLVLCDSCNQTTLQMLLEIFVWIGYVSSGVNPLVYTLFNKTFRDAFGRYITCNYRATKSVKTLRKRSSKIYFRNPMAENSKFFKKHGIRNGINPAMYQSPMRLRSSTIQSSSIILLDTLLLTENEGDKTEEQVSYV

D(3) dopamine receptor [8] = molecular target: T2, D(3) dopamine receptor; remark: listed apart in the source
D(4) dopamine receptor = molecular target: T7, D(4) dopamine receptor (Homo sapiens, UniProt P21917)
T7 sequence (P21917 whole entry): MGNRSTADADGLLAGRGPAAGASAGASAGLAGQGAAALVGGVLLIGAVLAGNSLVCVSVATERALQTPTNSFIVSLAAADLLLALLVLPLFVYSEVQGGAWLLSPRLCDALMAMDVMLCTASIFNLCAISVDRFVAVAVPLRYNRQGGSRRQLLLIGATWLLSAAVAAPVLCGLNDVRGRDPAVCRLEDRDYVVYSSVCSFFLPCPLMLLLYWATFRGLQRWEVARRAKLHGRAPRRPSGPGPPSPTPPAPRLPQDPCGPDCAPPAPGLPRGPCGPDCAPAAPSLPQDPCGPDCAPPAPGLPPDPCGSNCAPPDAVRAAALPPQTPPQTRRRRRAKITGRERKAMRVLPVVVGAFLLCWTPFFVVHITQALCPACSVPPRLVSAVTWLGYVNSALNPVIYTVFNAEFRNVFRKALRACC

[9] = molecular target: T4, Sodium-dependent dopamine transporter; remark: listed apart in the source
[10] = molecular target: T8, 5-hydroxytryptamine receptor 1A (Homo sapiens, UniProt P08908); format: functional, cell-based
T8 sequence (P08908 whole entry): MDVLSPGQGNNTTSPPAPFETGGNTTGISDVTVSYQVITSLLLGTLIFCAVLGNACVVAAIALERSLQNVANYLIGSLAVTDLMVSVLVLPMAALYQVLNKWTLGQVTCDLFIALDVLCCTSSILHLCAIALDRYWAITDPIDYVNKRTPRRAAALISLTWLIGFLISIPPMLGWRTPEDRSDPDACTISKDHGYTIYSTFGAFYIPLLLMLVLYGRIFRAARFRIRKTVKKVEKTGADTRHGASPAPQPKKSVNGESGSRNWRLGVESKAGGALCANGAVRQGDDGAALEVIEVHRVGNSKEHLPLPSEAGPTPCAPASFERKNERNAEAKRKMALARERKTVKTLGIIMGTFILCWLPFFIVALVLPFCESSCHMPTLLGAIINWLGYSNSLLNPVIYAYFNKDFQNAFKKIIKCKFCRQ

[11] = molecular target: Glutamate receptor ionotropic, NMDA 1 (Rattus norvegicus, UniProt P35439)
[12] = molecular target: T9, Gamma-aminobutyric acid receptor subunit alpha-1 (Rattus norvegicus, UniProt P62813); format: functional
T9 sequence (P62813 whole entry): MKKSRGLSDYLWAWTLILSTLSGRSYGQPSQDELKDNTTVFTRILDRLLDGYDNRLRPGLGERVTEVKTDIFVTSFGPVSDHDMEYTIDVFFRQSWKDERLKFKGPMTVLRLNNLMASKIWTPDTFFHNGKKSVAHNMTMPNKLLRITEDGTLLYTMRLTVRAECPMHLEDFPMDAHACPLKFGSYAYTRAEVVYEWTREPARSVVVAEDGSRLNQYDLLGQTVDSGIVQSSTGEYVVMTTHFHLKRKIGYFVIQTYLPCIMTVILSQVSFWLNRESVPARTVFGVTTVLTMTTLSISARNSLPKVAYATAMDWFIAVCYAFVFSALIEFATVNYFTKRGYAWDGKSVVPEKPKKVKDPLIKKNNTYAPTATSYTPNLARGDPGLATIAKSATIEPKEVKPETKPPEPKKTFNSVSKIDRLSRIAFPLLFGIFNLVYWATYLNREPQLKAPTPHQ

D(1A) dopamine receptor [13] = molecular target: T1, D(1A) dopamine receptor; format: functional, cell-based
[14] = molecular target: T9, Gamma-aminobutyric acid receptor subunit alpha-1
[15] = molecular target: Delta-type opioid receptor (Homo sapiens, UniProt P41143)
Chain of Delta-type opioid receptor (P41143 whole entry): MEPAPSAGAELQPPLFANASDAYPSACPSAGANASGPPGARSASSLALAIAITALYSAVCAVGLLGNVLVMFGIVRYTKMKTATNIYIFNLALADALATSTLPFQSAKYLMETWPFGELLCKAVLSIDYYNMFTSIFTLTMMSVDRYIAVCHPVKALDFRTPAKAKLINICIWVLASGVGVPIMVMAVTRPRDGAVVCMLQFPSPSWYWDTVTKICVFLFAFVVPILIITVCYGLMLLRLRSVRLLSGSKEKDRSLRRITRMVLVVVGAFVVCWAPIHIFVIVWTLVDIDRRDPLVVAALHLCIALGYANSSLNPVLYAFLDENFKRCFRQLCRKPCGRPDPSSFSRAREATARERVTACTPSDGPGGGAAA

D(1A) dopamine receptor [16] = molecular target: T1, D(1A) dopamine receptor; remark: listed apart in the source
[17] = molecular target: T6, 5-hydroxytryptamine receptor 2B; format: functional, cell-based; remark: listed apart in the source
Mu-type opioid receptor [18] = molecular target: T10, Mu-type opioid receptor (Homo sapiens, UniProt P35372)
T10 sequence (P35372 whole entry): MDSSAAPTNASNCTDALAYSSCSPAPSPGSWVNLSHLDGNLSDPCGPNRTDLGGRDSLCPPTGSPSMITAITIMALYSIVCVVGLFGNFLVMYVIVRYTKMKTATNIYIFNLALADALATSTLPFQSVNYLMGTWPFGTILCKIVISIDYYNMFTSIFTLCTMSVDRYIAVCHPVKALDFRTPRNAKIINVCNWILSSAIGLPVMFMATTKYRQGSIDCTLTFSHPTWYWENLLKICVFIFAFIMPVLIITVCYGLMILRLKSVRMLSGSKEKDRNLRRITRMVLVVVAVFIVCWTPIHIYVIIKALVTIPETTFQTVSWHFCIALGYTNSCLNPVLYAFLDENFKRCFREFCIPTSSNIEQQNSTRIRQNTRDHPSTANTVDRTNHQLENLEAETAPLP

[19] = molecular target: T11, 5-hydroxytryptamine receptor 2C (Homo sapiens, UniProt P28335)
T11 sequence (P28335 whole entry): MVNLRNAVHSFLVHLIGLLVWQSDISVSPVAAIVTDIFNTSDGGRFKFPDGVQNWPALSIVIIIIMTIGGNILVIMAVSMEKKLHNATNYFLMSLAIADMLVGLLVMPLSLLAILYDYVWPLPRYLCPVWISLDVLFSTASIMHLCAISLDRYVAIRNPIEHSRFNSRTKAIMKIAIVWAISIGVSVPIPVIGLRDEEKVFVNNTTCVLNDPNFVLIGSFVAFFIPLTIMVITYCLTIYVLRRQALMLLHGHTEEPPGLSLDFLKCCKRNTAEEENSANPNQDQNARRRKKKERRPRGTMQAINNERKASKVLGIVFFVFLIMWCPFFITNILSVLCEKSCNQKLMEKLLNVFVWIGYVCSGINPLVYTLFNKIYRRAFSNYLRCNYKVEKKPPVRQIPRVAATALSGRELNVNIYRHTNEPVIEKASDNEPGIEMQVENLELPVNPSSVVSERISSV

Mu-type opioid receptor [20] = molecular target: T10, Mu-type opioid receptor; remark: listed apart in the source
[21] = molecular target: Neuronal acetylcholine receptor subunit alpha-4 (Homo sapiens, UniProt P43681)
Chain of Neuronal acetylcholine receptor subunit alpha-4 (P43681 whole entry): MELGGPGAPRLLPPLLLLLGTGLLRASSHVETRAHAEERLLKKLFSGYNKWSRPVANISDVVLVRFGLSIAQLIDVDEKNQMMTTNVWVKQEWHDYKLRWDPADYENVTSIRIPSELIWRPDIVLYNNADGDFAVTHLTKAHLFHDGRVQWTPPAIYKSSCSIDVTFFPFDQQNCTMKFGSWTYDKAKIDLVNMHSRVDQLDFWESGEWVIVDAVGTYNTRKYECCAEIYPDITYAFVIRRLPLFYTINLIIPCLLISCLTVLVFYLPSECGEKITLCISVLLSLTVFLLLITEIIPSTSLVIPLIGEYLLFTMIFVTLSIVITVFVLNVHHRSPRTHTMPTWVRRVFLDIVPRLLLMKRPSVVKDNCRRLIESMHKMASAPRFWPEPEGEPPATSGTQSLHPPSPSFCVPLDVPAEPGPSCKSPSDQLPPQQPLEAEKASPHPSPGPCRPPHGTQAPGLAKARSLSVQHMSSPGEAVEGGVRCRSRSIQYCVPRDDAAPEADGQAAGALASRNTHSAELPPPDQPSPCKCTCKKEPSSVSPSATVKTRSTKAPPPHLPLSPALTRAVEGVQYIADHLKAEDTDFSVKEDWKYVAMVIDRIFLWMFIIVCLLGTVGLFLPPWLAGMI

D(1A) dopamine receptor [22] = molecular target: T1, D(1A) dopamine receptor; remark: listed apart in the source
[23] = molecular target: T6, 5-hydroxytryptamine receptor 2B; format: functional, cell-based; remark: listed apart in the source
[24] = molecular target: T5, Sodium-dependent noradrenaline transporter; remark: listed apart in the source
[25] = molecular target: T9, Gamma-aminobutyric acid receptor subunit alpha-1; remark: listed apart in the source
[26] = molecular target: T6, 5-hydroxytryptamine receptor 2B
[27] = molecular target: T8, 5-hydroxytryptamine receptor 1A
Cannabinoid receptor 1 [28] = molecular target: T12, Cannabinoid receptor 1 (Homo sapiens, UniProt P21554); format: functional, cell-based
T12 sequence (P21554 whole entry): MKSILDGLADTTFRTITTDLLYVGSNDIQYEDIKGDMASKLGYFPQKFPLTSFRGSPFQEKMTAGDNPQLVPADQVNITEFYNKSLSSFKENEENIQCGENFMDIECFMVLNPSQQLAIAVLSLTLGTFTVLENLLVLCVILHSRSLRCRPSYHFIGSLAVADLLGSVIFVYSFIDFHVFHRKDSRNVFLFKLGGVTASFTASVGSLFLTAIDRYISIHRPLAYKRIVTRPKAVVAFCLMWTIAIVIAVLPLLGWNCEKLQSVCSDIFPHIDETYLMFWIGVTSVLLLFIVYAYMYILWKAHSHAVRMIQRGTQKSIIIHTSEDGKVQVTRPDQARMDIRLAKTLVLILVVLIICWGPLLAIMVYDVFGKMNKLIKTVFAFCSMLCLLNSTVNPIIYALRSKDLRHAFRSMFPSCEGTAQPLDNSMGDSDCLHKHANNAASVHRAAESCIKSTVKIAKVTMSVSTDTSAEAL

[29] = molecular target: Voltage-dependent N-type calcium channel subunit alpha-1B (Rattus norvegicus, UniProt Q02294); format: functional
[30] = molecular target: T8, 5-hydroxytryptamine receptor 1A; format: functional, cell-based; remark: listed apart in the source
Cannabinoid receptor 1 [31] = molecular target: T12, Cannabinoid receptor 1
[32] = molecular target: T8, 5-hydroxytryptamine receptor 1A; remark: listed apart in the source
Note: assay procedure not described here.

T1 sequence (P21728 whole entry): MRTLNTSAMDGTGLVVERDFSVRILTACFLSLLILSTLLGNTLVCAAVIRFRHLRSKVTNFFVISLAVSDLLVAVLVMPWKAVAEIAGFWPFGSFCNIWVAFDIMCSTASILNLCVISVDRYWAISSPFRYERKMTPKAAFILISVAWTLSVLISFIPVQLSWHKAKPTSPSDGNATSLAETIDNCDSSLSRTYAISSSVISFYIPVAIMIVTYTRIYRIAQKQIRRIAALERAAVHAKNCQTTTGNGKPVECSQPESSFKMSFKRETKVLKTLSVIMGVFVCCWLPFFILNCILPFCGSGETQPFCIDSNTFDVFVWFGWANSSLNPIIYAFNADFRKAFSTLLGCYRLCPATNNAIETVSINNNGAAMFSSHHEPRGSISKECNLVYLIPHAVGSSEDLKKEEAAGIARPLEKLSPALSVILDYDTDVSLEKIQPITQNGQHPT
T2 sequence (P35462 whole entry): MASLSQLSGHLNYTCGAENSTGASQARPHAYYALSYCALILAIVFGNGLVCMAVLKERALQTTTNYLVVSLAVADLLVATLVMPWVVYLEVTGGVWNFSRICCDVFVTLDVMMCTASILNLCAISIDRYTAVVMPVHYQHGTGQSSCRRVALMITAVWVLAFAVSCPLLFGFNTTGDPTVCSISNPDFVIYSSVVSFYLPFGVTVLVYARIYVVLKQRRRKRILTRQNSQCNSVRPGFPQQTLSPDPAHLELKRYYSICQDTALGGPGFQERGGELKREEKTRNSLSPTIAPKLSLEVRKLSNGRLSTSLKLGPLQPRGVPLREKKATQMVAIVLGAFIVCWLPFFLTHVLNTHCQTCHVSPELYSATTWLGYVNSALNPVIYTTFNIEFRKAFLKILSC

`COC(=O)C1=C(C)NC(C)=C(C(=O)OC)C1c1ccccc1[N+](=O)[O-]` [NIFEDIPINE] gave an AC50 (D(1A) dopamine receptor [1]) of over 10 µM, an AC50 [2] of over 10 µM and an AC50 (D(3) dopamine receptor [3]) of over 30 µM. It also gave an AC50 [4] of over 30 µM, an AC50 [5] of over 30 µM and an AC50 [6] of over 10 µM. It also gave an AC50 [7] of 6.8 µM, an AC50 (D(3) dopamine receptor [8]) of over 10 µM and an AC50 (D(4) dopamine receptor) of over 10 µM. The AC50 [9] was over 10 µM, the AC50 [10] was over 10 µM and the AC50 [11] was over 10 µM. It also gave an AC50 [12] of over 10 µM, an AC50 (D(1A) dopamine receptor [13]) of over 10 µM and an AC50 [14] of over 10 µM. For the same compound, the AC50 [15] was over 30 µM, the AC50 (D(1A) dopamine receptor [16]) was over 30 µM and the AC50 [17] was over 30 µM. It also gave an AC50 (Mu-type opioid receptor [18]) of 11 µM, an AC50 [19] of over 30 µM and an AC50 (Mu-type opioid receptor [20]) of over 30 µM. For the same compound, the AC50 [21] was over 10 µM, the AC50 (D(1A) dopamine receptor [22]) was 26 µM and the AC50 [23] was over 10 µM. For the same compound, the AC50 [24] was over 30 µM, the AC50 [25] was over 30 µM and the AC50 [26] was over 10 µM. The AC50 [27] was over 10 µM, the AC50 (Cannabinoid receptor 1 [28]) was over 30 µM and the AC50 [29] was over 10 µM. It also gave an AC50 [30] of over 10 µM, an AC50 (Cannabinoid receptor 1 [31]) of over 10 µM and an AC50 [32] of over 30 µM.
